Experimental data taken from ChEMBL document CHEMBL6103613 (J Med Chem, 2025).
Values after ≈ are worked out from the molar mass of the structure shown. Active and inactive are the calls of the source. The rule behind the calls is not given here.

Columns and labels:
Staphylococcus aureus [1] = experiment: Antimicrobial activity against methicillin-resistant Staphylococcus aureus clinical isolate 4 assessed as inhibition of visible bacterial growth incubated for 18 hrs by CLSI based analysis; format: functional
Bacillus subtilis = experiment: Antimicrobial activity against Bacillus subtilis ATCC 23875 assessed as inhibition of visible bacterial growth incubated for 18 hrs by CLSI based analysis; format: functional
Enterococcus faecalis = experiment: Antimicrobial activity against Enterococcus faecalis ATCC 19433 assessed as inhibition of visible bacterial growth incubated for 18 hrs by CLSI based analysis; format: functional
Enterococcus faecium = experiment: Antimicrobial activity against vancomycin-resistant Enterococcus faecium assessed as inhibition of visible bacterial growth incubated for 18 hrs by CLSI based analysis; format: functional
[2] = system: Staphylococcus epidermidis; experiment: Antimicrobial activity against Staphylococcus epidermidis ATCC 12228 assessed as inhibition of visible bacterial growth incubated for 18 hrs by CLSI based analysis; format: functional
Escherichia coli = experiment: Antimicrobial activity against Escherichia coli assessed as inhibition of visible bacterial growth incubated for 18 hrs by CLSI based analysis; format: functional
[3] = Hemolytic activity against mouse Red blood cell incubated for 1 hr; format: toxicity, cell-based; settings: erythrocyte
[4] = Therapeutic index, ratio of HC5 for hemolytic activity in mouse Red blood cell to MIC for antimicrobial activity against Staphylococcus aureus ATCC 25923 assessed as inhibition of visible bacterial growth; format: toxicity, cell-based, RBC; settings: red blood cells, read-out: TI
Staphylococcus aureus [5] = experiment: Antimicrobial activity against Staphylococcus aureus assessed as inhibition of visible bacterial growth incubated for 18 hrs by CLSI based analysis; format: functional
Staphylococcus aureus [6] = experiment: Antimicrobial activity against Staphylococcus aureus assessed as reduction in bacterial growth at 2 times MIC incubated for 2 hrs by time-killing assay; format: functional; design: scale not given: the % may be the effect or the level left
Staphylococcus aureus [7] = experiment: Antibiofilm activity in Staphylococcus aureus assessed as biofilm eradication at 4 times MIC relative to control; format: functional
Staphylococcus aureus [8] = experiment: Antibiofilm activity in Staphylococcus aureus assessed as biofilm eradication at 8 times MIC relative to control; format: functional
Staphylococcus aureus [9] = experiment: Induction of ROS production in Staphylococcus aureus assessed as increase in fluorescence intensity at 2 times MIC by DCFH-DA probe based assay; format: functional, organism-based
Staphylococcus aureus [10] = experiment: Upregulation of catalase expression in Staphylococcus aureus at 12.5 microg/ml incubated for 3 hrs by RNA sequencing analysis; format: functional, organism-based; settings: dose 12.5 µg/ml
Staphylococcus aureus [11] = experiment: Upregulation of superoxide dismutase expression in Staphylococcus aureus at 12.5 microg/ml incubated for 3 hrs by RNA sequencing analysis; format: functional; settings: dose 12.5 µg/ml
Staphylococcus aureus [12] = experiment: Upregulation of ahpF expression in Staphylococcus aureus at 12.5 microg/ml incubated for 3 hrs by RNA sequencing analysis; format: functional; settings: dose 12.5 µg/ml
Staphylococcus aureus [13] = experiment: Upregulation of LiaF expression in Staphylococcus aureus at 12.5 microg/ml incubated for 3 hrs by RNA sequencing analysis; format: functional; settings: dose 12.5 µg/ml
Staphylococcus aureus [14] = experiment: Upregulation of SgtB expression in Staphylococcus aureus at 12.5 microg/ml incubated for 3 hrs by RNA sequencing analysis; format: functional; settings: dose 12.5 µg/ml
Staphylococcus aureus [15] = experiment: Upregulation of TarF expression in Staphylococcus aureus at 12.5 microg/ml incubated for 3 hrs by RNA sequencing analysis; format: functional; settings: dose 12.5 µg/ml
Staphylococcus aureus [16] = experiment: Upregulation of fmtA expression in Staphylococcus aureus at 12.5 microg/ml incubated for 3 hrs by RNA sequencing analysis; format: functional; settings: dose 12.5 µg/ml
Staphylococcus aureus [17] = experiment: Antimicrobial activity against Staphylococcus aureus incubated for 0.5 hrs in presence of K+; format: functional, organism-based
Staphylococcus aureus [18] = experiment: Antimicrobial activity against Staphylococcus aureus incubated for 0.5 hrs in presence of Mg+; format: functional, organism-based
Staphylococcus aureus [19] = experiment: Antimicrobial activity against Staphylococcus aureus incubated for 0.5 hrs in presence of Fe3+; format: functional, organism-based
Staphylococcus aureus [20] = experiment: Antimicrobial activity against Staphylococcus aureus incubated for 0.5 hrs in presence of Ca2+; format: functional, organism-based
[21] = Toxicity in mouse assessed as change in water intake at 50 mg/kg, ip measured for 7 days; format: organism-based; settings: in vivo, 168 h, time 7 day
[22] = Toxicity in mouse assessed as heart damage at 50 mg/kg, ip measured for 7 days by H and E staining based analysis; format: organism-based; settings: in vivo, 168 h, time 7 day
[23] = Toxicity in mouse assessed as liver damage at 50 mg/kg, ip measured for 7 days by H and E staining based analysis; format: organism-based; settings: in vivo, 168 h, time 7 day
[24] = Toxicity in mouse assessed as lung damage at 50 mg/kg, ip measured for 7 days by H and E staining based analysis; format: organism-based; settings: in vivo, 168 h, time 7 day
[25] = Toxicity in kunming mouse assessed as effect on lung morphology at 5 mg/kg, ip; format: organism-based; settings: in vivo
Staphylococcus aureus [26] = experiment: Antibacterial activity against methicillin-resistant Staphylococcus aureus infected in kunming mouse pneumonia model assessed as reduction in colony count in lung at 5 mg/kg, ip measured upto 8 days; format: functional, organism-based; settings: time <= 8.0 day
Staphylococcus aureus [27] = experiment: Antibacterial activity against methicillin-resistant Staphylococcus aureus infected in kunming mouse pneumonia model assessed as decrease in IL-6 expression in lung at 5 mg/kg, ip measured upto 8 days; format: functional, organism-based; settings: time <= 8.0 day
Staphylococcus aureus [28] = experiment: Antibacterial activity against methicillin-resistant Staphylococcus aureus infected in kunming mouse peritonitis model assessed as reduction in bacterial colonies in kidney at 5 mg/kg, ip measured upto 8 days; format: functional, organism-based; settings: time <= 8.0 day

CC(C)[C@@H]1NC(=O)[C@@H](C(C)C)NC(=O)[C@H](C(C)C)NC(=O)[C@@H](CCCCN)NC(=O)[C@H](Cc2c(C(c3ccccc3)(c3ccccc3)c3ccccc3)[nH]c3ccccc23)NC(=O)[C@@H](C(C)C)NC(=O)[C@@H]2CSC1N2
MIC (Staphylococcus aureus [1]): 6.25 µg/mL (≈ 6.01 µM)
MIC (Bacillus subtilis): 6.25 µg/mL (≈ 6.01 µM)
MIC (Enterococcus faecalis): 12.5 µg/mL (≈ 12 µM)
MIC (Enterococcus faecium): 12.5 µg/mL (≈ 12 µM)
MIC [2]: 6.25 µg/mL (≈ 6.01 µM)
MIC (Escherichia coli): 3.13 µg/mL (≈ 3.01 µM)
HC5 [3]: > 100 µg/mL
selectivity ratio [4]: > 16
MIC (Staphylococcus aureus [5]): 3.13 µg/mL (≈ 3.01 µM)
Activity (Staphylococcus aureus [6]): >99%
Activity (Staphylococcus aureus [7]): 40%
Activity (Staphylococcus aureus [8]): 90%
Activity (Staphylococcus aureus [9]): Active
Activity (Staphylococcus aureus [10]): Active
Activity (Staphylococcus aureus [11]): Active
Activity (Staphylococcus aureus [12]): Active
Activity (Staphylococcus aureus [13]): Active
Activity (Staphylococcus aureus [14]): Active
Activity (Staphylococcus aureus [15]): Active
Activity (Staphylococcus aureus [16]): Active
Activity (Staphylococcus aureus [17]): Active
Activity (Staphylococcus aureus [18]): Active
Activity (Staphylococcus aureus [19]): Active
Activity (Staphylococcus aureus [20]): Active
Activity [21]: Non-toxic
Activity [22]: Non-toxic
Activity [23]: Non-toxic
Activity [24]: Non-toxic
Activity [25]: Non-toxic
Activity (Staphylococcus aureus [26]): Active
Activity (Staphylococcus aureus [27]): Active
Activity (Staphylococcus aureus [28]): Active
